From patent US8883782B2, “Spiro-tetracyclic ring compounds as beta-secretase modulators and methods of use” (Amgen Inc., priority 2010, dated 2014) come the findings set out here.

Where two headings read alike, the source gives them in different places.

Assay [1] concerns the target Beta Secretase enzyme (BACE) (Homo sapiens, UniProt P56817). Briefly: In vitro enzymatic BACE FRET (fluorescence resonance energy transfer) assay. Type of assay: biochemical. Particulars: average IC50, enzyme assay; read-out: BACE 1 FRET assay. The method, boiled down: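 Fluorescence read after Tris quench (pH raised to neutrality) of a one-hour BACE reaction. Buffer: acetate 0.05 M, pH 4.2, with 100 uM genapol and 10% DMSO final; started by adding 50 nM FRET peptide substrate spanning the cleavage site.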

The subject of assay [2] is Aβ40 in conditioned medium of cells stably expressing Amyloid Precursor Protein (APP). Briefly: In vitro BACE cell-based assay (Aβ40 in conditioned medium, sandwich ELISA). Particulars: read-out: HEK cell assay. The method, boiled down: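 Quantification relied on pAb40/6E10 sandwich ELISA with Europium fluorescence counts, and IC50 was fitted versus concentration.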
Background: ELISA stands for enzyme-linked immunosorbent assay.

The mark [3] stands for this setting: Homo sapiens, HEK293, average IC50, HEK cells.
Where [4] appears, read: Homo sapiens, HEK293, average IC50.

Chain of Beta Secretase enzyme (BACE) (P56817 46-501, species assumed): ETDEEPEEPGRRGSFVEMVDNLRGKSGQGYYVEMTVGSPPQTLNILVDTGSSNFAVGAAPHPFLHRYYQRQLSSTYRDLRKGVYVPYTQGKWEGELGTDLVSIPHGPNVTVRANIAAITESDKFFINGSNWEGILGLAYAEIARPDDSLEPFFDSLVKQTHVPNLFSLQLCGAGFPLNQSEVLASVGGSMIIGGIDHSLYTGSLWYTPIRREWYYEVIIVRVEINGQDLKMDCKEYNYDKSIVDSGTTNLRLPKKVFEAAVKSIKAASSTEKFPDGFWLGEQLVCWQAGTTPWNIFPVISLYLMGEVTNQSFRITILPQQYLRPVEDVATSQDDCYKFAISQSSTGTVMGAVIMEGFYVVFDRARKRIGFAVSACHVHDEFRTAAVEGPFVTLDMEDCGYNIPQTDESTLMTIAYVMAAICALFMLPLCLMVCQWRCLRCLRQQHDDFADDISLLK

For `Cn1cc(-c2cnc3c(c2)[C@]2(CSC(N)=N2)c2cc(-c4ccc(F)nc4)ccc2O3)cn1` [Example 962, (5S)-7-(6-fluoro-3-pyridinyl)-3-(1-methyl-1H-pyrazol-4-yl)spiro[chromeno[2,3-b]pyridine-5,4′-[1,3]thiazol]-2′-amine], the IC50 is 5.4 nM in assay [1] and 65 nM in assay [2] (setting [3]).

For the molecule `CC1(C#Cc2cnc3c(c2)[C@@]2(COC(N)=N2)c2c(ccc(-c4cncnc4)c2F)O3)COC1` [Example 345, (5S)-6-fluoro-3-((3-methyl-3-oxetanyl)ethynyl)-7-(5-pyrimidinyl)spiro[chromeno[2,3-b]pyridine-5,4′-[1,3]oxazol]-2′-amine], the IC50 was 94 nM in assay [1] and 650 nM in assay [2] (setting [4]).

`NC1=N[C@@]2(CO1)c1cc(-c3ccc(F)nc3)ccc1Oc1c(F)cc(-c3ncccn3)cc12` [Example 289, (4S)-4′-fluoro-7′-(6-fluoro-3-pyridinyl)-2′-(2-pyrimidinyl)spiro[1,3-oxazole-4,9′-xanthen]-2-amine]: the IC50 was found to be 2.5 nM in assay [1] and 14.6 nM in assay [2] (setting [4]).

Regarding `CC1(C#Cc2cc3c(cn2)Oc2ccc(-c4cccnc4F)cc2[C@@]32CSC(N)=N2)COC1` [Example 995, (5S)-7-(2-fluoro-3-pyridinyl)-3-((3-methyl-3-oxetanyl)ethynyl)spiro[chromeno[2,3-c]pyridine-5,4′-[1,3]thiazol]-2′-amine], the IC50 stood at 0.8 nM in assay [1] and 15 nM in assay [2] (setting [4]).

For `NC1=N[C@@]2(CO1)c1cc(-c3cc(F)cnc3F)ccc1Oc1cnc(C3=CCOCC3)cc12` [Example 600, (5S)-7-(2,5-difluoro-3-pyridinyl)-3-(3,6-dihydro-2H-pyran-4-yl)spiro[chromeno[2,3-c]pyridine-5,4′-[1,3]oxazol]-2′-amine], the values for the IC50 in assay [1] and in assay [2] (setting [3]) were 17.7 nM and 165 nM, respectively.

Turning to `NC1=N[C@@]2(CS1)c1cc(-c3cccnc3F)c(F)cc1Oc1c(F)cc(N3CCOCC3)cc12` [Example 879, (4S)-3′,5′-difluoro-2′-(2-fluoro-3-pyridinyl)-7′-(4-morpholinyl)spiro[1,3-thiazole-4,9′-xanthen]-2-amine], the IC50 in assay [1] was found to be 0.3 nM; in assay [2] (setting [3]) it was 11 nM.

Turning to `Cc1cncc(-c2ccc3c(c2)[C@@]2(COC(N)=N2)c2cc(-c4ccnc(C#N)c4)ncc2O3)c1` [Example 141, 4-((5S)-2′-amino-7-(5-methyl-3-pyridinyl)spiro[chromeno[2,3-c]pyridine-5,4′-[1,3]oxazol]-3-yl)-2-pyridinecarbonitrile], the figures for the IC50 in assay [1] and in assay [2] (setting [4]) were 17.4 nM and 114 nM, respectively.

In the case of `COc1nc(-c2ccncc2)cc2c1Oc1ccc(-c3cccnc3F)cc1[C@@]21COC(N)=N1` [Example 834, (5S)-7-(2-fluoro-3-pyridinyl)-1-methoxy-3-(4-pyridinyl)spiro[chromeno[2,3-c]pyridine-5,4′-[1,3]oxazol]-2′-amine], the IC50 in assay [1] was found to be 3.5 nM; in assay [2] (setting [4]), 70 nM.

`CC#Cc1cncc(-c2ccc3c(c2)[C@@]2(CSC(N)=N2)c2cc(-c4ncccn4)cnc2O3)c1` [Example 789, (5S)-7-(5-(1-propyn-1-yl)-3-pyridinyl)-3-(2-pyrimidinyl)spiro[chromeno[2,3-b]pyridine-5,4′-[1,3]thiazol]-2′-amine]: the IC50 in assay [1] came out at 2.2 nM; in assay [2] (setting [4]) it was 9 nM.

For `CC1(C)C[C@H](c2cnc3c(c2)[C@]2(COC(N)=N2)c2cc(-c4cccc(C#N)c4)ccc2O3)CCO1` [Example 471, 3-((5S)-2′-amino-3-((4R)-2,2-dimethyltetrahydro-2H-pyran-4-yl)spiro[chromeno[2,3-b]pyridine-5,4′-[1,3]oxazol]-7-yl)benzonitrile], the IC50 was 5.1 nM in assay [1] and 14 nM in assay [2] (average IC50, HEK cells).

With `COc1ccc2c(c1)[C@@]1(COC(N)=N1)c1cc(-n3nccc3C)cc(F)c1O2` [Example 663, (4S)-4′-fluoro-7′-methoxy-2′-(5-methyl-1H-pyrazol-1-yl)spiro[1,3-oxazole-4,9′-xanthen]-2-amine], the IC50 in assay [1] amounted to 430 nM; in assay [2] (setting [3]), 8520 nM.

On to `COc1cccc(Nc2ccc3c(c2)[C@@]2(COC(N)=N2)c2cc(N4CCOCC4)cc(F)c2O3)c1` [Example 198, (4S)-5′-fluoro-N~2~′-(3-methoxyphenyl)-7′-(4-morpholinyl)spiro[1,3-oxazole-4,9′-xanthene]-2,2′-diamine], for which the IC50 in assay [1] stood at 77.9 nM; in assay [2] (setting [4]), 572 nM.

As for `CC1(C)CC(c2cc3c(cn2)Oc2ccc(-c4cncnc4)cc2[C@@]32COC(N)=N2)=CCO1` [Example 679, (5S)-3-(2,2-dimethyl-3,6-dihydro-2H-pyran-4-yl)-7-(5-pyrimidinyl)spiro[chromeno[2,3-c]pyridine-5,4′-[1,3]oxazol]-2′-amine], the figures for the IC50 in assay [1] and in assay [2] (setting [3]) were 1.6 nM and 14 nM, respectively.

Turning to `CC1(C)C[C@@H](c2cc(F)c3c(c2)[C@]2(COC(N)=N2)c2cc(-c4cnccn4)ccc2O3)CCO1` [Example 449, (4S)-2′-((4S)-2,2-dimethyltetrahydro-2H-pyran-4-yl)-4′-fluoro-7′-(2-pyrazinyl)spiro[1,3-oxazole-4,9′-xanthen]-2-amine], the IC50 in assay [1] worked out at 3.7 nM; in assay [2] (setting [3]) it was 20 nM.

Turning to `COc1ncc(-c2cc3c(cn2)Oc2ccc(-c4cccnc4F)cc2[C@@]32COC(N)=N2)cc1F` [Example 570, (5S)-3-(5-fluoro-6-methoxy-3-pyridinyl)-7-(2-fluoro-3-pyridinyl)spiro[chromeno[2,3-c]pyridine-5,4′-[1,3]oxazol]-2′-amine], the IC50 in assay [1] turned out to be 2 nM; in assay [2] (setting [3]) it was 31 nM.

As to `NC1=N[C@@]2(CO1)c1cc(-c3cccc(Cl)c3)ccc1Oc1cnc(C3CCOCC3)cc12` [Example 241, (5S)-7-(3-chlorophenyl)-3-(tetrahydro-2H-pyran-4-yl)spiro[chromeno[2,3-c]pyridine-5,4′-[1,3]oxazol]-2′-amine], the IC50 in assay [1] was 3.4 nM; in assay [2] (setting [4]) it was 62.9 nM.

With `CC1(C#Cc2cnc3c(c2)[C@]2(COC(N)=N2)c2cc(-c4cc(Cl)cnc4F)ccc2O3)COC1` [Example 456, (5S)-7-(5-chloro-2-fluoro-3-pyridinyl)-3-((3-methyl-3-oxetanyl)ethynyl)spiro[chromeno[2,3-b]pyridine-5,4′-[1,3]oxazol]-2′-amine], the IC50 in assay [1] worked out at 0.6 nM; in assay [2] (setting [3]), 2.2 nM.

For the molecule `CC1(C#Cc2cc3c(cn2)Oc2ccc(-c4cccnc4)cc2[C@@]32COC(N)=N2)COC1` [Example 154, (5S)-3-((3-methyl-3-oxetanyl)ethynyl)-7-(3-pyridinyl)spiro[chromeno[2,3-c]pyridine-5,4′-[1,3]oxazol]-2′-amine], the IC50 in assay [1] turned out to be 1.4 nM; in assay [2] (setting [4]) it was 6.5 nM.

As for `C=Cc1cc2c(c(F)n1)Oc1ccc(-c3cncc(F)c3)cc1C21COC(N)=N1` (stereo not shown) [Example 848, 3-ethenyl-1-fluoro-7-(5-fluoro-3-pyridinyl)spiro[chromeno[2,3-c]pyridine-5,4′-[1,3]oxazol]-2′-amine], the IC50 turned out to be 0.4 nM in assay [1] and 2 nM in assay [2] (setting [4]).

Regarding `CC(C)(C)C#Cc1cc2c(cn1)Oc1cc(F)c(-c3cncnc3)cc1[C@@]21COC(N)=N1` [Example 305, (5S)-3-(3,3-dimethyl-1-butyn-1-yl)-8-fluoro-7-(5-pyrimidinyl)spiro[chromeno[2,3-c]pyridine-5,4′-[1,3]oxazol]-2′-amine], the results for the IC50 in assay [1] and in assay [2] (setting [4]) were 9.9 nM and 95.8 nM, respectively.

Consider `COc1ccc2c(c1)[C@@]1(COC(N)=N1)c1cc(-n3ccc(C)n3)cc(F)c1O2` [Example 664, (4S)-4′-fluoro-7′-methoxy-2′-(3-methyl-1H-pyrazol-1-yl)spiro[1,3-oxazole-4,9′-xanthen]-2-amine], for which the IC50 came out at 1000 nM in assay [1] and 6670 nM in assay [2] (setting [3]).

In the case of `NC1=N[C@@]2(CO1)c1cc(-c3cccnc3F)ccc1Oc1ncc([C@@H]3CCCOC3)cc12` [Example 174, (5S)-7-(2-fluoro-3-pyridinyl)-3-((3S)-tetrahydro-2H-pyran-3-yl)spiro[chromeno[2,3-b]pyridine-5,4′-[1,3]oxazol]-2′-amine], the IC50 in assay [1] came out at 12.1 nM; in assay [2] (setting [4]) it was 40 nM.

Consider `CC1(C#Cc2cc3c(c(F)n2)Oc2ccc(-c4cccnc4F)cc2[C@]32COC(N)=N2)COC1` [Example 737, (5R)-1-fluoro-7-(2-fluoro-3-pyridinyl)-3-((3-methyl-3-oxetanyl)ethynyl)spiro[chromeno[2,3-c]pyridine-5,4′-[1,3]oxazol]-2′-amine], for which the figures for the IC50 in assay [1] and in assay [2] (setting [4]) were 116 nM and 4330 nM, respectively.

`COc1ccc(Cl)c(-c2ccc3c(c2)[C@@]2(COC(N)=N2)c2cc(C4=CCOCC4)cnc2O3)c1` [Example 499, (5S)-7-(2-chloro-5-methoxyphenyl)-3-(3,6-dihydro-2H-pyran-4-yl)spiro[chromeno[2,3-b]pyridine-5,4′-[1,3]oxazol]-2′-amine]: the values for the IC50 in assay [1] and in assay [2] (setting [3]) were 2.2 nM and 22.7 nM, respectively.

As to `CC1(COc2cc3c(cc2F)Oc2ccc(-c4ccnc(Cl)c4)cc2[C@@]32COC(N)=N2)COC1` [Example 325, (4S)-7′-(2-chloro-4-pyridinyl)-3′-fluoro-2′-((3-methyl-3-oxetanyl)methoxy)spiro[1,3-oxazole-4,9′-xanthen]-2-amine], the IC50 was 50.2 nM in assay [1] and 255 nM in assay [2] (setting [4]).

For `Cc1ncccc1-c1ccc2c(c1)[C@@]1(COC(N)=N1)c1cc(C3=CCOCC3)ncc1O2` [Example 247, (5S)-3-(3,6-dihydro-2H-pyran-4-yl)-7-(2-methyl-3-pyridinyl)spiro[chromeno[2,3-c]pyridine-5,4′-[1,3]oxazol]-2′-amine], the IC50 in assay [1] was determined as 44.9 nM; in assay [2] (setting [4]), 45.5 nM.
